Measurements published in patent US20260226048A1, “MULTI-CYCLIC IRAK AND FLT3 INHIBITING COMPOUNDS AND USES THEREOF” (CHILDREN'S HOSPITAL MEDICAL CENTER, priority 2023, published 2026).

Columns and labels:
IRAK1 = target: T1, IRAK1 (Homo sapiens, UniProt P51617); experiment: RBC HotSpot Kinase Assay, IRAK1; type: biochemical; settings: isolated kinase enzyme, 33P-ATP, P81 filter-binding
T1 construct: purchased Reaction Biology (RBC HotSpot)
From the text: (§1) This assay uses the isolated kinase enzyme. […] Unlike kinase binding assays that measure competition for ATP, the HotSpot Kinase Assay is a functional assay that measures catalytic activity; as such it measures relative functional potency regardless of the mechanism of enzyme inhibition. This assay uses the form of the various enzymes that are easiest to express, which may not necessarily be the form of the enzyme that exist in the cell. (Sometimes the carboxy terminus has been truncated to aid in expression, or, if it is a receptor kinase, the enzyme itself is isolated from the other parts of the receptor that are involved in regulating kinase activity.)
(§2) The reagent used was as follows: Base Reaction buffer; 20 mM Hepes (pH 7.5), 10 mM MgCl2, 1 mM EGTA, 0.01% Brij35, 0.02 mg/ml BSA, 0.1 mM Na3VO4, 2 mM DTT, 1% DMSO. Required cofactors were added individually to each kinase reaction.

MOLM14 D835Y cells = experiment: MOLM14 D835Y cell viability assay (Cell Titer Glo); type: cell-based; settings: Homo sapiens, MOLM-14, 48 h, cell viability, Cell Titer Glo, 48 hours; read-out: MOLM14 D835Y IC50
Experimental: (§3) Both cell lines have activated FLT3 receptors, each of which carry additional resistance mutations in the kinase domain (D835Y and F691L, respectively).
(§4) For viability/cytotoxicity assessments, cells were seeded into 1536-well white polystyrene tissue culture-treated Greiner plates using a Multidrop Combi dispenser (ThermoFisher), in final volume 5 μL of growth media per well, at a density of 1000 cells per well. […] Plates were incubated for 48 hours at standard incubator conditions covered by a stainless steel gasketed lid to prevent evaporation. 48 hours post compound addition, 3 μL of Cell Titer Glo (Promega) were added to each well and plates were incubated at room temperature for 15 minutes with the stainless-steel lid in place. Luminescence readings were taken using a Viewlux imager (PerkinElmer) with a 2 second exposure time per plate.

MOLM14 F691L cells = experiment: MOLM14 F691L cell viability assay (Cell Titer Glo); type: cell-based; settings: Homo sapiens, MOLM-14; cell viability, Cell Titer Glo, 48 hours; read-out: MOLM14 F691L IC50
Experimental: as §3, §4

IRAK4 = target: T2, IRAK4 (Homo sapiens, UniProt Q9NWZ3); experiment: RBC HotSpot Kinase Assay, IRAK4; type: biochemical; design: purchased Reaction Biology (RBC HotSpot); settings: isolated kinase enzyme, 33P-ATP, P81 filter-binding
T2 sequence (Q9NWZ3 1-460): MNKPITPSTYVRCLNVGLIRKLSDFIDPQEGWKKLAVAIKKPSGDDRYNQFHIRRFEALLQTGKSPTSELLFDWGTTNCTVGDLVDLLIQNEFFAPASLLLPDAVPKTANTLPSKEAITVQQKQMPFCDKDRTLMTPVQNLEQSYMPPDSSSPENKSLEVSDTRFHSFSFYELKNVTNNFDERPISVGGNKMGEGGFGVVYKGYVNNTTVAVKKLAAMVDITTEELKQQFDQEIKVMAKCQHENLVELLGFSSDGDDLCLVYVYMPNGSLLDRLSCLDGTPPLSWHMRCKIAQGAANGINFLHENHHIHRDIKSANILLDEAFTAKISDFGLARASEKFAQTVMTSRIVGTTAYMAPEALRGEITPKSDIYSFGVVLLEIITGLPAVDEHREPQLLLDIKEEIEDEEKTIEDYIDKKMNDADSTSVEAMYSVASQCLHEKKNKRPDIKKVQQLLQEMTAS
From the text: as §1, with “enzyme. This assay is very useful for determining competition of the inhibitor for ATP and/or substrates and for measuring the kinetics of enzyme inhibition.” for “enzyme.”
as §2
The reaction procedure was as follows: • 1) Substrates were prepared in freshly prepared Reaction Buffer. • 2) Any required cofactors were delivered to the substrate solution above. • 3) Kinase was delivered into the substrate solution and gently mixed. • 4) Compounds were delivered in 1000A DM into the kinase reaction mixture by Acoustic technology (Echo550; nanoliter range), followed by incubation for 20 min at room temp. • 5) 33P-ATP was delivered into the reaction mixture to initiate the reaction. • 6) The mixture was incubated for 2 hours at room temperature. • 7) Kinase activity was detected by P81 filter-binding method.

FLT3 = target: T3, FLT3 (Homo sapiens, UniProt P36888); experiment: RBC HotSpot Kinase Assay, FLT3; type: biochemical; design: purchased Reaction Biology (RBC HotSpot); settings: isolated kinase enzyme, 33P-ATP, P81 filter-binding
T3 sequence (P36888 27-993): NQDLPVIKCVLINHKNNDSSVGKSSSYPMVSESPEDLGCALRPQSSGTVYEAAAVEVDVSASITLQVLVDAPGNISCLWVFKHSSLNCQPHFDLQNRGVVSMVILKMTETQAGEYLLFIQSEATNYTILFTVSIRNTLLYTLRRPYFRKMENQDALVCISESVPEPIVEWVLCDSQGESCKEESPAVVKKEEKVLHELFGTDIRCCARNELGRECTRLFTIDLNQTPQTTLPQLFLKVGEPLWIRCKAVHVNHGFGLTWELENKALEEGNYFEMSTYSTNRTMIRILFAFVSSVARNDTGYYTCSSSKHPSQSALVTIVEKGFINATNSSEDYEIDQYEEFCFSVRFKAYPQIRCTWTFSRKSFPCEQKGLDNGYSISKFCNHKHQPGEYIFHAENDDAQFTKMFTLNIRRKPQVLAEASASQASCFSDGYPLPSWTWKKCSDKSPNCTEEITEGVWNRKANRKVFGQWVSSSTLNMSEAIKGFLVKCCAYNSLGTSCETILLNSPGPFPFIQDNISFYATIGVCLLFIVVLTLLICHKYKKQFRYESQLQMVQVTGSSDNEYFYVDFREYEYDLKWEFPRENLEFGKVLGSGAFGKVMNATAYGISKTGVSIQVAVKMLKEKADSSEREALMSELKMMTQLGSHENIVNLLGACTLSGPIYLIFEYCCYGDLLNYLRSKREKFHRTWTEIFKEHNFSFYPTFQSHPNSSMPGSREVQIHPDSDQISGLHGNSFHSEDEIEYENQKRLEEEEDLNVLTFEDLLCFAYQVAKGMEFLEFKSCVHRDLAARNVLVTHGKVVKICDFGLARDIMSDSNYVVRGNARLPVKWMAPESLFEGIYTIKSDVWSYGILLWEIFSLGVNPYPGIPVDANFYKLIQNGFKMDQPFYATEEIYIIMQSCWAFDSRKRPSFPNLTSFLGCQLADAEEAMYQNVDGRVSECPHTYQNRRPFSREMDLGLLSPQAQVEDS
From the text: as §1, §2

T1 sequence (P51617 whole entry): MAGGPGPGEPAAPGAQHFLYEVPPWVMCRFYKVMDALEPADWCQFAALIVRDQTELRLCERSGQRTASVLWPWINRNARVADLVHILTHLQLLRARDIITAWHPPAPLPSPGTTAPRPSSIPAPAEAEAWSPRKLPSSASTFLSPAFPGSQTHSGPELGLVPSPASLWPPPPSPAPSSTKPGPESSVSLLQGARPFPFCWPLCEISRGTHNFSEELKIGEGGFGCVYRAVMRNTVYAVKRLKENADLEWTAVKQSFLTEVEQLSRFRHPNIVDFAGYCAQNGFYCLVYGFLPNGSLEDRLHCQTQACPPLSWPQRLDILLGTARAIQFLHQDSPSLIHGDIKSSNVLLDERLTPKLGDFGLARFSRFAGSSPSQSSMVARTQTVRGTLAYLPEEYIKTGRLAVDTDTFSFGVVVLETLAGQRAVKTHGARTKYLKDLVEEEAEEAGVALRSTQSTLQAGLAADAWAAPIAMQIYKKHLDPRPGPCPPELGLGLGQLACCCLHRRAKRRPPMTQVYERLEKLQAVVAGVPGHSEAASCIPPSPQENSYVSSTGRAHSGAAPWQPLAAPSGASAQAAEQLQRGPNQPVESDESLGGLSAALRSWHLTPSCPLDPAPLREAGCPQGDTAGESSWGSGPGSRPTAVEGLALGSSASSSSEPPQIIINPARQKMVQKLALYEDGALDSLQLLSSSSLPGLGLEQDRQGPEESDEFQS

## FC(F)COc1cc2ncc(-c3cncc(N[C@H]4CNCC[C@@H]4F)n3)n2nc1C1CC1 [Compound 7a, 6-(6-cyclopropyl-7-(2,2-difluoroethoxy)imidazo[1,2-b]pyridazin-3-yl)-N-((3 S,4S)-4-fluoropiperidin-3-yl)pyrazin-2-amine]
IRAK1
  IC50: 73 nM
MOLM14 D835Y cells
  IC50: 10 nM
MOLM14 F691L cells
  IC50: 20 nM
IRAK4
  IC50: 2 nM
FLT3
  IC50: < 0.5 nM

## c1cc(-c2cnc3cc(OC4CC4)c(C4CC4)nn23)nc(N[C@@H]2CCCNC2)n1 [Compound 11a, (R)-4-(7-cyclopropoxy-6-cyclopropylimidazo[1,2-b]pyridazin-3-yl)-N-(piperidin-3-yl)pyrimidin-2-amine]
IRAK1
  IC50: 52 nM
MOLM14 D835Y cells
  IC50: 22 nM
MOLM14 F691L cells
  IC50: 80 nM
IRAK4
  IC50: 5 nM
FLT3
  IC50: < 0.5 nM

## F[C@H]1CNC[C@@H]1Nc1cncc(-c2cnc3cc(OC4CC4)c(C4CC4)nn23)n1 [Compound 14a, 6-(7-cyclopropoxy-6-cyclopropylimidazo[1,2-b]pyridazin-3-yl)-N-((3S,4S)-4-fluoropyrrolidin-3-yl)pyrazin-2-amine]
IRAK1
  IC50: 117 nM
MOLM14 D835Y cells
  IC50: 101 nM
MOLM14 F691L cells
  IC50: 318 nM
IRAK4
  IC50: 16 nM
FLT3
  IC50: < 0.5 nM

## c1ncc(-c2cnc3cc(OC4CC4)c(C4CC4)nn23)nc1N[C@@H]1CCCNC1 [Compound 15a, (R)-6-(7-cyclopropoxy-6-cyclopropylimidazo[1,2-b]pyridazin-3-yl)-N-(piperidin-3-yl)pyrazin-2-amine]
IRAK1
  IC50: 258 nM
MOLM14 D835Y cells
  IC50: 45 nM
MOLM14 F691L cells
  IC50: 113 nM
IRAK4
  IC50: 18 nM
FLT3
  IC50: < 0.5 nM

## COc1cc2ncc(-c3nc(N[C@H]4CNC[C@@H]4F)ncc3F)n2nc1C1CCC1 [Compound 52a, 4-(6-cyclobutyl-7-methoxyimidazo[1,2-b]pyridazin-3-yl)-5-fluoro-N-((3S,4S)-4-fluoropyrrolidin-3-yl)pyrimidin-2-amine]
IRAK1
  IC50: 0.8 nM
MOLM14 D835Y cells
  IC50: 3 nM
MOLM14 F691L cells
  IC50: 45 nM
IRAK4
  IC50: 0.9 nM
FLT3
  IC50: < 0.5 nM

## COc1cc2ncc(-c3nc(N[C@@H]4CCCNC4)ncc3F)n2nc1C1CCC1 [Compound 53a, (R)-4-(6-cyclobutyl-7-methoxyimidazo[1,2-b]pyridazin-3-yl)-5-fluoro-N-(piperidin-3-yl)pyrimidin-2-amine]
IRAK1
  IC50: 1 nM
MOLM14 D835Y cells
  IC50: 1 nM
MOLM14 F691L cells
  IC50: 10 nM
IRAK4
  IC50: < 0.5 nM
FLT3
  IC50: < 0.5 nM

## COc1cc2ncc(-c3nc(N[C@H]4CNC[C@@H]4F)ncc3F)n2nc1C1CC(C)(C)C1 [Compound 55a, 4-(6-(3,3-dimethylcyclobutyl)-7-methoxyimidazo[1,2-b]pyridazin-3-yl)-5-fluoro-N-((3S,4S)-4-fluoropyrrolidin-3-yl)pyrimidin-2-amine]
IRAK1
  IC50: 5 nM
MOLM14 D835Y cells
  IC50: 28 nM
MOLM14 F691L cells
  IC50: 225 nM
IRAK4
  IC50: 2 nM
FLT3
  IC50: < 0.5 nM

## COc1cc2ncc(-c3nc(N[C@@H]4CCCNC4)ncc3F)n2nc1C1CC(C)(C)C1 [Compound 56a, (R)-4-(6-(3,3-dimethylcyclobutyl)-7-methoxyimidazo[1,2-b]pyridazin-3-yl)-5-fluoro-N-(piperidin-3-yl)pyrimidin-2-amine]
IRAK1
  IC50: 0.7 nM
MOLM14 D835Y cells
  IC50: 8 nM
MOLM14 F691L cells
  IC50: 71 nM
IRAK4
  IC50: 2 nM
FLT3
  IC50: < 0.5 nM

## COc1cc2ncc(-c3nc(N[C@H]4CNC[C@@H]4F)ncc3F)n2nc1C1CC2(CCC2)C1 [Compound 58a, 5-fluoro-N-((3S,4S)-4-fluoropyrrolidin-3-yl)-4-(7-methoxy-6-(spiro[3.3]heptan-2-yl)imidazo[1,2-b]pyridazin-3-yl)pyrimidin-2-amine]
IRAK1
  IC50: 7 nM
MOLM14 D835Y cells
  IC50: 14 nM
MOLM14 F691L cells
  IC50: 127 nM
IRAK4
  IC50: 5 nM
FLT3
  IC50: < 0.5 nM

## COc1cc2ncc(-c3nc(N[C@H]4CNC[C@@H]4F)ncc3F)n2nc1C1CCCC1 [Compound 61a, 4-(6-cyclopentyl-7-methoxyimidazo[1,2-b]pyridazin-3-yl)-5-fluoro-N-((3S,4S)-4-fluoropyrrolidin-3-yl)pyrimidin-2-amine]
IRAK1
  IC50: < 0.5 nM
MOLM14 D835Y cells
  IC50: 3 nM
MOLM14 F691L cells
  IC50: 28 nM
IRAK4
  IC50: < 0.5 nM
FLT3
  IC50: < 0.5 nM

## COc1cc2ncc(-c3cncc(N[C@H]4CNC[C@@H]4F)n3)n2nc1C1CC(F)(F)C1 [Compound 71a, 6-(6-(3,3-difluorocyclobutyl)-7-methoxyimidazo[1,2-b]pyridazin-3-yl)-N-((3S,4S)-4-fluoropyrrolidin-3-yl)pyrazin-2-amine]
IRAK1
  IC50: 342 nM
MOLM14 D835Y cells
  IC50: 576 nM
IRAK4
  IC50: 64 nM
FLT3
  IC50: 1 nM

## COc1cc2ncc(-c3cncc(N[C@@H]4CCCNC4)n3)n2nc1C1CC(F)(F)C1 [Compound 72a, (R)-6-(6-(3,3-difluorocyclobutyl)-7-methoxyimidazo[1,2-b]pyridazin-3-yl)-N-(piperidin-3-yl)pyrazin-2-amine]
IRAK1
  IC50: 127 nM
MOLM14 D835Y cells
  IC50: 289 nM
IRAK4
  IC50: 60 nM
FLT3
  IC50: 0.8 nM

## COc1cc2ncc(-c3cncc(N[C@H]4CNCC[C@@H]4F)n3)n2nc1C1CC(F)(F)C1 [Compound 73a, 6-(6-(3,3-difluorocyclobutyl)-7-methoxyimidazo[1,2-b]pyridazin-3-yl)-N-((3S,4S)-4-fluoropiperidin-3-yl)pyrazin-2-amine]
IRAK1
  IC50: 129 nM
MOLM14 D835Y cells
  IC50: 204 nM
IRAK4
  IC50: 12 nM
FLT3
  IC50: < 0.5 nM

## COc1cc2ncc(-c3ccnc(N[C@@H]4CCCNC4)n3)n2nc1C1CCC1 [Compound 78a, (R)-4-(6-cyclobutyl-7-methoxyimidazo[1,2-b]pyridazin-3-yl)-N-(piperidin-3-yl)pyrimidin-2-amine]
IRAK1
  IC50: 75 nM
MOLM14 D835Y cells
  IC50: 29 nM
IRAK4
  IC50: 7 nM
FLT3
  IC50: < 0.5 nM
